This is an account of results in publication PMC11530802, “Evolution, structure, and drug-metabolizing activity of mammalian prenylcysteine oxidases” (The Journal of Biological Chemistry, 2024).

In this test the target is T1, PCYOX1 (mammalian ancestor).
T1 construct: mammalian ancestor's PCYOX1 (26-502), without signal peptide, six histidine N-terminal tag
As to the kind of experiment: microscale thermophoresis; GC-MS detection of farnesal. Type of test: binding, synthetic construct. Background: Microscale thermophoresis detects binding through changes in fluorescence in a small temperature gradient.

In the case of `CC(C)=CCC/C(C)=C/CC/C(C)=C/CSc1ccccc1C(=O)O` [salirasib], the Kd (in general, a measure of binding affinity in units of concentration) was determined as 12 ± 0.2 µM.
